Reference: patent US7425577B2, “Lipase-colipase inhibitor” (Forskarpatent 1 SYD AB, priority 2003, dated 2008)
One block for each molecule: values may come before it.

Target: T1, Lipase and colipase, purified from human pancreatic gland (Homo sapiens, UniProt P04118+P16233)
T1 construct: Lipase, Purified from Human Pancreatic Gland; Colipase, Purified from Human Pancreatic Gland; from tissue; host or cells: human pancreatic gland
T1 sequence (P16233 17-465): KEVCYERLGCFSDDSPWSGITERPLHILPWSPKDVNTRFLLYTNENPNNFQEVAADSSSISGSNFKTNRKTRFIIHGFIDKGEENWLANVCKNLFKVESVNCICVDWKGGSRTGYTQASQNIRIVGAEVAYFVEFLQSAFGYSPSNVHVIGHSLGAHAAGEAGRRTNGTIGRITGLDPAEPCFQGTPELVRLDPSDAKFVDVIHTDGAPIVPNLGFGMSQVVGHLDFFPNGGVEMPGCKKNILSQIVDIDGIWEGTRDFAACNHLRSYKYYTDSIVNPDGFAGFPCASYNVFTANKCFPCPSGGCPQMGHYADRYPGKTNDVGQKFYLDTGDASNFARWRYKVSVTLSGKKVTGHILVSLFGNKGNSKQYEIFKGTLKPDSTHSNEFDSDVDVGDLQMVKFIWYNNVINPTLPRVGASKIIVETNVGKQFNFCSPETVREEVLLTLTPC
T1 sequence (P04118 23-112): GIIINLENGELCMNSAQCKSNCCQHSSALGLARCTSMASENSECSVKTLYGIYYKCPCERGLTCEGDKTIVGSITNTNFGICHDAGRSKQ
Test: Determination of lipolysis by colipase/lipase (pH-stat, tributyrine emulsion with NaTDC)
Format: biochemical
Source text: Determination of Lipolysis by Colipase/Lipase
The most important enzyme in the gastro-intestinal tract being responsible for the hydrolysis of lipids/fats in the gastro-intestinal tract is lipase, pancreatic lipase, together with its protein cofactor colipase. These are two proteins, which are secreted from the pancreatic gland. […] The colipase binds to lipase in a molar 1:1 complex and then moves the complex to the triglyceride surface. In the binding between lipase and colipase hydrogen bonds are present, between arg38 of the colipase and ser343 of the lipase and from glu15 of the colipase and the asn241 of the lipase molecules. In the binding of colipase to the substrate (the lipids/fat) there are both hydrophobic bonds as well as ion-ion bonds present. By an isolated lack of colipase it has been shown that colipase has a decisive role for the lipolysis in the gastro-intestinal tract of humans. Pure lipase and colipase have been produced in accordance with the following.
Lipase, Purified from Human Pancreatic Gland
Colipase, Purified from Human Pancreatic Gland
0.5 ml of tributyrine is mixed with 15 ml of a buffer containing 1 mM CaCl2, 150 mM NaCl, 2 mM tris-maleate, pH 7.0 and 4 mM NaTDC (sodium taurodeoxycholate). An emulsion is obtained by continuous stirring. pH is titrated by means of a pH-state, where 0.1 N NaOH is added automatically to keep an constant pH. 10 μl of lipase is added from a stock solution containing 70 units of lipase/ml, followed by 10 μl of colipase from a stock solution containing 1 mg colipase/ml. An activity is registered which is determined to be 100%. An addition of an inhibitor is then made. A new assay is used for every concentration, prepared in the same way. The inhibition is registered as percentage of control. A dose-response plot is obtained for the compounds having an inhibiting ability.

Activity Inhibitor (amount of inhibitor 2.49 μmol, control activity 0.304): 0.249 µmol/min | Activity Inhibitor (amount of inhibitor 4.98 μmol, control activity 0.319): 0.215 µmol/min | Activity Inhibitor (amount of inhibitor 8.71 μmol, control activity 0.314): 0.136 µmol/min | Activity Inhibitor (amount of inhibitor 12.44 μmol, control activity 0.356): 0.069 µmol/min | Activity Inhibitor (amount of inhibitor 18.66 μmol, control activity 0.32): 0.053 µmol/min | Activity Inhibitor (amount of inhibitor 21.89 μmol, control activity 0.293): 0.035 µmol/min | Activity Inhibitor (amount of inhibitor 24.88 μmol, control activity 0.278): 0 µmol/min
SMILES: CCCCCCCCOCCN(C)C [dimethylaminoethyl octyl ether]

Activity Inhibitor (amount of inhibitor 1.04 μmol, control activity 0.226): 0.179 µmol/min | Activity Inhibitor (amount of inhibitor 2.07 μmol, control activity 0.243): 0.121 µmol/min | Activity Inhibitor (amount of inhibitor 4.14 μmol, control activity 0.223): 0.056 µmol/min | Activity Inhibitor (amount of inhibitor 7.25 μmol, control activity 0.257): 0.045 µmol/min | Activity Inhibitor (amount of inhibitor 10.35 μmol, control activity 0.282): 0.033 µmol/min | Activity Inhibitor (amount of inhibitor 15.53 μmol, control activity 0.256): 0 µmol/min
SMILES: CCCCCCCCCCCCCCN(C)C [N,N-dimethyl tetradecyl amine]

SMILES: CCCCCCCCCCCCOCCOCCOCCOCCOCCOCCOCCOCCOCCN(CCC)CCC [dipropylaminoethyl octaethyleneglycol dodecyl ether]
Activity Inhibitor (amount of inhibitor 0.2 μmol, control activity 0.256): 0.256 µmol/min | Activity Inhibitor (amount of inhibitor 0.4 μmol, control activity 0.28): 0.256 µmol/min | Activity Inhibitor (amount of inhibitor 0.8 μmol, control activity 0.259): 0.209 µmol/min | Activity Inhibitor (amount of inhibitor 2.01 μmol, control activity 0.25): 0.136 µmol/min | Activity Inhibitor (amount of inhibitor 4.02 μmol, control activity 0.246): 0.096 µmol/min | Activity Inhibitor (amount of inhibitor 8.04 μmol, control activity 0.244): 0.033 µmol/min | Activity Inhibitor (amount of inhibitor 12.06 μmol, control activity 0.252): 0.011 µmol/min | Activity Inhibitor (amount of inhibitor 16.08 μmol, control activity 0.247): 0 µmol/min

SMILES: CCCCCCCCCCCCOCCOCCOCCOCCOCCOCCN(C)C [dimethylaminoethyl pentaethyleneglycol dodecyl ether]
Activity Inhibitor (amount of inhibitor 0.26 μmol, control activity 0.307): 0.273 µmol/min | Activity Inhibitor (amount of inhibitor 0.52 μmol, control activity 0.29): 0.236 µmol/min | Activity Inhibitor (amount of inhibitor 1.05 μmol, control activity 0.302): 0.222 µmol/min | Activity Inhibitor (amount of inhibitor 2.62 μmol, control activity 0.299): 0.13 µmol/min | Activity Inhibitor (amount of inhibitor 5.23 μmol, control activity 0.314): 0.083 µmol/min | Activity Inhibitor (amount of inhibitor 7.85 μmol, control activity 0.312): 0.04 µmol/min | Activity Inhibitor (amount of inhibitor 10.46 μmol, control activity 0.3): 0.015 µmol/min | Activity Inhibitor (amount of inhibitor 15.69 μmol, control activity 0.319): 0.009 µmol/min | Activity Inhibitor (amount of inhibitor 20.92 μmol, control activity 0.282): 0 µmol/min
